In the NIST ThermoML archive (doi:10.1016/j.tca.2019.05.011):

Key:
[1] = molar heat capacity at constant pressure; details: 101.33 kPa, Liquid, Vacuum adiabatic calorimetry
[2] = Liquid, Closed cell (Static) method

CC(C)O [propan-2-ol]
Details | molar heat capacity at constant pressure [J/K/mol] | vapor or sublimation pressure [kPa]
[1], 190 K | 111.12 | –
[1], 200 K | 112.89 | –
[1], 210 K | 115.01 | –
[1], 220 K | 117.52 | –
[1], 230 K | 120.46 | –
[1], 240 K | 123.87 | –
[1], 250 K | 127.81 | –
[1], 260 K | 132.31 | –
[1], 270 K | 137.41 | –
[1], 280 K | 143.19 | –
[1], 290 K | 149.68 | –
[1], 300 K | 156.94 | –
[1], 310 K | 165.02 | –
[1], 320 K | 173.99 | –
[1], 330 K | 183.9 | –
[2], 297.8 K | – | 5.781
[2], 303.1 K | – | 7.995
[2], 315.8 K | – | 16.22
[2], 332.1 K | – | 36.06
[2], 344.7 K | – | 63.92
